Measurements as given in patent US12150926B2 (SICHUAN JIUZHANG BIOLOGICAL SCIENCE AND TECHNOLOGY CO., LTD., priority 2018, dated 2024).

Experiments:
[1] = system: transplanted tumor in S180 sarcoma-bearing KM mice; assay: In vivo inhibitory effect of chlorogenic acid composition on S180 sarcoma transplantation in KM mice (Experimental example 2); set-up: species or system mouse; key to growth volume of transplanted tumor: tumor volume V=0.52×L×W² (long × shortest diameter²); settings: for inhibitory effect on the growth volume of transplanted tumors (in words): at different time points, compared with negative control group, i.p. once a day, 30 mg/kg (ADM 2 mg/kg); for Tumor weight / Tumor inhibition rate / growth volume of transplanted tumor: intraperitoneally, once a day; for Tumor weight: at termination; for Tumor inhibition rate: from tumor weight vs negative group; for growth volume of transplanted tumor: x ± s, n = 10
Description: S180 sarcoma transplantation in KM mice
(§1) KM mice, half male and half female, weighing 17-24 g.
S180 cell lines were mouse sarcoma cells, and suspendedly grew in DH medium, containing 20% calf serum, 1 mmol/L glutamine, 100 U·ml^−1 penicillin, and 100 μg·ml^−1 streptomycin, then cultured in 37° C., 5% CO2, saturated humidity incubator. The medium was changed every 2-3 days for passage.
(§2) S180 cells in the logarithmic growth phase were harvested, centrifuged at 1000 rpm for 5 min, washed twice, and the number of viable cells was counted by trypan blue staining. The cells were inoculated into the abdominal cavity of KM mice as soon as possible, and these mice were used as breeding mice.
The ascites was extracted from 7 to 10 days, and the number of cells was adjusted to (about 1×10^6 cells) after dilution. The cell suspension in ascites was inoculated subcutaneously in the axillary of the left forelimb of the mice at 0.2 ml/animal. […] Coumaroylquinic acid group: intraperitoneally injected, once a day, at a dose of 30 mg·kg^−1.
Negative group: intraperitoneally injected, once a day, receiving an equal volume of normal saline.
(§3) On the 5th day after inoculation, the tumor volume was measured (V=0.52×L (the long diameter of the transplanted tumor)×W^2 (the shortest diameter of the transplanted tumor)), and the mice were weighed every three days. The experiment was terminated when the average tumor size in the negative group was more than 1 g (the tumor volume was about 0.5 cm^3). The mice were sacrificed by cervical vertebra luxation and weighed, the tumor was removed, and the tumor inhibitory rate was calculated. Tumor inhibitory rate %=[1−(average tumor weight in drug group/average tumor weight in negative group)]×100%.

[2] = system: transplanted tumor in S180 sarcoma-bearing KM mice; assay: In vivo inhibitory effect of chlorogenic acid on S180 sarcoma transplantation in KM mice (Experimental example 1); set-up: species or system mouse; key to growth volume of transplanted tumor: V = 0.52 × L × W² (long × shortest diameter²), in cm³; settings: for growth volume of transplanted tumor: x ± s, n = 10; for inhibitory effect on the growth volume of transplanted tumors (in words): at different time points, compared with negative control group, chlorogenic acid systemic, local and systemic+local groups 30 mg/kg, ADM 2 mg/kg; for Tumor inhibiton rate: from tumor weight vs negative group; for Tumor weight: at termination
Description: as §1
S180 cell lines were mouse sarcoma cells, and suspendedly grew in DH medium, containing 20% calf serum, 1 mmol/L glutamine, 100 U·ml^−1 penicillin, and 100 μg·ml^−1 streptomycin, then cultured in 37° C. 5% CO2, saturated humidity incubator. The medium was changed every 2-3 days for passage.
as §2, with “mice. 2) In vivo experiment The ascites was extracted from 7 to 10 days, and the number of cells was adjusted to (about 1×10^6 cells) after dilution. The cell suspension in ascites was inoculated subcutaneously in the axillary of the left forelimb of the mice at 0.2 ml/animal.” for “mice.”
as §3, with “Negative group: intraperitoneally injected, once a day, receiving an equal volume of normal saline. On” for “On”

[3] = time after inoculation 74, 30 mg/kg
[4] = time after inoculation 134 [sic], 30 mg/kg
[5] = time after inoculation printed 94, 30 mg/kg
[6] = time after inoculation printed 114, 30 mg/kg
[7] = systemic + local administration: i.v. once a day 30 mg/kg plus s.c. peri-lesion once every 5 days 30 mg/kg

Compound: coumaroylquinic acid
- inhibitory effect on the growth volume of transplanted tumors (in words) [1]: didn't show inhibitory effect
- Tumor weight ([1]; 30 mg/kg): 2.303 ± 0.475 g
- Tumor inhibition rate ([1]; 30 mg/kg, 30 mg/kg): 5.15%
- Tumor inhibition rate ([1]; 30 mg/kg, listed as coumaroylquinic acid, 30 mg/kg): 5%
- growth volume of transplanted tumor [1, 3]: 0.364 ± 0.074
- growth volume of transplanted tumor [1, 4]: 1.106 ± 0.137
- growth volume of transplanted tumor ([1]; time after inoculation printed 54, 30 mg/kg): 0.209 ± 0.058
- growth volume of transplanted tumor [1, 5]: 0.573 ± 0.093
- growth volume of transplanted tumor [1, 6]: 0.898 ± 0.075

Compound: COc1cccc2c1C(=O)c1c(O)c3c(c(O)c1C2=O)C[C@@](O)(C(=O)CO)C[C@@H]3O[C@H]1C[C@H](N)[C@H](O)[C@H](C)O1 [ADM, adriamycin, reference compound]
- growth volume of transplanted tumor ([2]; 5 d after inoculation, intraperitoneally, once a day, 2 mg/kg): 0.096 ± 0.041
- growth volume of transplanted tumor ([2]; 9 d after inoculation, intraperitoneally, once a day, 2 mg/kg): 0.199 ± 0.080
- growth volume of transplanted tumor ([2]; 11 d after inoculation, intraperitoneally, once a day, 2 mg/kg): 0.333 ± 0.159
- growth volume of transplanted tumor ([2]; 13 d after inoculation, intraperitoneally, once a day, 2 mg/kg): 0.478 ± 0.241
- inhibitory effect on the growth volume of transplanted tumors (in words) [2]: significant inhibitory effect
- Tumor inhibiton rate ([2]; intraperitoneally, once a day, 2 mg/kg, listed as Adriamycin (ADM), 2 mg/kg): 56.95%
- inhibitory effect on the growth volume of transplanted tumors (in words) [1]: significant inhibitory effect
- Tumor weight ([1]; 2 mg/kg): 1.132 ± 0.552 g
- Tumor inhibition rate ([1]; 2 mg/kg, listed as Adriamycin (ADM), 2 mg/kg): 53.38%
- growth volume of transplanted tumor ([1]; time after inoculation 74, 2 mg/kg): 0.171 ± 0.082
- growth volume of transplanted tumor ([1]; time after inoculation 134 [sic], 2 mg/kg): 0.492 ± 0.204
- growth volume of transplanted tumor ([1]; time after inoculation printed 54, 2 mg/kg): 0.116 ± 0.073
- growth volume of transplanted tumor ([1]; time after inoculation printed 114, 2 mg/kg): 0.363 ± 0.128

Compound: O=C(/C=C/c1ccc(O)c(O)c1)O[C@@H]1C[C@](O)(C(=O)O)C[C@@H](O)[C@H]1O [Chlorogenic acid]
- growth volume of transplanted tumor ([2]; 5 d after inoculation, local administration: subcutaneously into periphery of in situ lesion, once a day, 30 mg/kg): 0.152 ± 0.028
- growth volume of transplanted tumor ([2]; 5 d after inoculation, systemic administration: intravenously, once a day, 30 mg/kg): 0.141 ± 0.032
- growth volume of transplanted tumor ([2]; 7 d after inoculation, local administration: subcutaneously into periphery of in situ lesion, once a day, 30 mg/kg): 0.221 ± 0.047
- growth volume of transplanted tumor ([2]; 7 d after inoculation, systemic + local administration: i.v. once a day 30 mg/kg plus s.c. peri-lesion once every 5 days 30 mg/kg): 0.186 ± 0.065
- growth volume of transplanted tumor ([2]; 7 d after inoculation, systemic administration: intravenously, once a day, 30 mg/kg): 0.205 ± 0.061
- growth volume of transplanted tumor ([2]; 9 d after inoculation, local administration: subcutaneously into periphery of in situ lesion, once a day, 30 mg/kg): 0.311 ± 0.064
- growth volume of transplanted tumor ([2]; 9 d after inoculation, systemic + local administration: i.v. once a day 30 mg/kg plus s.c. peri-lesion once every 5 days 30 mg/kg): 0.243 ± 0.066
- growth volume of transplanted tumor ([2]; 9 d after inoculation, systemic administration: intravenously, once a day, 30 mg/kg): 0.289 ± 0.082
- growth volume of transplanted tumor ([2]; 11 d after inoculation, local administration: subcutaneously into periphery of in situ lesion, once a day, 30 mg/kg): 0.535 ± 0.078
- growth volume of transplanted tumor ([2]; 11 d after inoculation, systemic + local administration: i.v. once a day 30 mg/kg plus s.c. peri-lesion once every 5 days 30 mg/kg): 0.344 ± 0.127
- growth volume of transplanted tumor ([2]; 11 d after inoculation, systemic administration: intravenously, once a day, 30 mg/kg): 0.504 ± 0.158
- growth volume of transplanted tumor ([2]; 13 d after inoculation, local administration: subcutaneously into periphery of in situ lesion, once a day, 30 mg/kg): 0.651 ± 0.154
- growth volume of transplanted tumor ([2]; 13 d after inoculation, systemic + local administration: i.v. once a day 30 mg/kg plus s.c. peri-lesion once every 5 days 30 mg/kg): 0.446 ± 0.157
- growth volume of transplanted tumor ([2]; 13 d after inoculation, systemic administration: intravenously, once a day, 30 mg/kg): 0.593 ± 0.213
- inhibitory effect on the growth volume of transplanted tumors (in words) [2]: significant inhibitory effect
- Tumor weight ([2]; local administration: s.c. peri-lesion, once a day, 30 mg/kg): 1.324 ± 0.239 g
- Tumor inhibiton rate ([2]; local administration: s.c. peri-lesion, once a day, 30 mg/kg, 30 mg/kg): 41.36%
- Tumor weight [2, 7]: 0.957 ± 0.308 g
- Tumor inhibiton rate [2, 7]: 57.62%
- Tumor weight ([2]; systemic administration: intravenously, once a day, 30 mg/kg): 1.183 ± 0.215 g
- Tumor inhibiton rate ([2]; systemic administration: intravenously, once a day, 30 mg/kg, 30 mg/kg): 47.61%
- inhibitory effect on the growth volume compared with the systemic administration group and the local administration group (in words) ([2]; systemic+local administration group): better inhibitory effect
- inhibitory effect on the growth volume of transplanted tumors (in words) [1]: significant inhibitory effect
- Tumor inhibition rate ([1]; 30 mg/kg, 30 mg/kg): 48.64%
- growth volume of transplanted tumor [1, 3]: 0.242 ± 0.053
- growth volume of transplanted tumor [1, 4]: 0.811 ± 0.142
- growth volume of transplanted tumor [1, 5]: 0.326 ± 0.071
- growth volume of transplanted tumor [1, 6]: 0.453 ± 0.093
